In ChEMBL document CHEMBL2202954, “The effect of PLC-γ2 inhibitors on the growth of human tumour cells” (2012) one finds Activity data, which are given here for 9 compounds.

Assay type in all cases: functional
One experiment relates to BT-549. Put plainly: Cytotoxicity against human BT549 cells assessed as cellular growth at 10 uM by SRB assay.
For another experiment, the system named is MDA-MB-231. The experiment is described as follows: Cytotoxicity against human MDA-MB-231 cells assessed as cellular growth at 10 uM by SRB assay. (In general: Sulforhodamine B stains cellular protein and so reports cell mass.)
The next experiment concerns MCF7. The experiment is described as follows: Cytotoxicity against human MCF7 cells assessed as cellular growth at 10 uM by SRB assay.
For a further experiment, the system named is PC-3. Put plainly: Cytotoxicity against human PC3 cells assessed as cellular growth at 10 uM by SRB assay.
A further experiment concerns A498. Put plainly: Cytotoxicity against human A498 cells assessed as cellular growth at 10 uM by SRB assay.
In another experiment the test system is OVCAR-8. The experiment is described as follows: Cytotoxicity against human OVCAR8 cells assessed as cellular growth at 10 uM by SRB assay.
The subject of another experiment is UACC-257. Put plainly: Cytotoxicity against human UACC257 cells assessed as cellular growth at 10 uM by SRB assay.
The subject of the next experiment is SK-MEL-2. The experiment is described as follows: Cytotoxicity against human SK-MEL-2 cells assessed as cellular growth at 10 uM by SRB assay.
The subject of another experiment is U-251. Put plainly: Cytotoxicity against human U251 cells assessed as cellular growth at 10 uM by SRB assay.
In the next experiment the test system is SNB-75. Put plainly: Cytotoxicity against human SNB75 cells assessed as cellular growth at 10 uM by SRB assay.
Another experiment concerns SNB-19. Put plainly: Cytotoxicity against human SNB19 cells assessed as cellular growth at 10 uM by SRB assay.
The next experiment deals with SF-539. The experiment is described as follows: Cytotoxicity against human SF539 cells assessed as cellular growth at 10 uM by SRB assay.
For the next experiment, the system named is SW-620. Put plainly: Cytotoxicity against human SW620 cells assessed as cellular growth at 10 uM by SRB assay.
The subject of the next experiment is HT-29. Put plainly: Cytotoxicity against human HT-29 cells assessed as cellular growth at 10 uM by SRB assay.
In another experiment the test system is HCC 2998. Put plainly: Cytotoxicity against human HCC2998 cells assessed as cellular growth at 10 uM by SRB assay.
For another experiment, the system named is COLO 205. The experiment is described as follows: Cytotoxicity against human COLO205 cells assessed as cellular growth at 10 uM by SRB assay.
For a further experiment, the system named is NCI-H460. Put plainly: Cytotoxicity against human NCI-H460 cells assessed as cellular growth at 10 uM by SRB assay.
The subject of a further experiment is NCI-H226. Put plainly: Cytotoxicity against human NCI-H226 cells assessed as cellular growth at 10 uM by SRB assay.
A further experiment has as its system MOLT-4. The experiment is described as follows: Cytotoxicity against human MOLT4 cells assessed as cellular growth at 10 uM by SRB assay.
The test system of the next experiment is CCRF-CEM. The experiment is described as follows: Cytotoxicity against human CCRF-CEM cells assessed as cellular growth at 10 uM by SRB assay.

For the compound `Nc1c(C(=O)Nc2ccccc2F)sc2nc3c(cc12)C(=O)CCC3`, the Activity in the experiment on BT-549 is on record as 59.83%; in the experiment on MDA-MB-231 it was 48.88%; in the experiment with MCF7, 22.91%; with PC-3 it was 23.38%; with A498, -1.01%; in the experiment with OVCAR-8, 58.62%. The Activity is reported as 66.94% in the experiment on UACC-257; 42.64% in the experiment with SK-MEL-2; 31.63% in the experiment on U-251; 13.66% in the experiment on SNB-75; 41.11% in the experiment with SNB-19; 10.48% in the experiment with SF-539. For the same compound, the Activity with SW-620 turned out to be 30%; in the experiment on HT-29, 12.19%; in the experiment on HCC 2998, 43.8%; in the experiment with COLO 205, 5.76%; with NCI-H460, 11.41%; in the experiment on NCI-H226, 75.1%. The Activity in the experiment with MOLT-4 was 73.64%; in the experiment on CCRF-CEM, 26.78%.
Turning to `CC1(C)CCc2cc(-c3ccn(S(=O)(=O)c4cccc(C(F)(F)F)c4)n3)ccc2O1`, the Activity with BT-549 was 119.64%; in the experiment on MDA-MB-231 it was 95.04%; with MCF7, 87.68%; with PC-3, 88.93%; in the experiment with A498, 94.88%; with OVCAR-8, 93.92%. Also, the Activity in the experiment with UACC-257 was found to be 81.69%; in the experiment with SK-MEL-2 it was 107.75%; in the experiment with U-251, 81.96%; in the experiment with SNB-75, 102.76%; with SNB-19, 103.83%; with SF-539, 116.68%. Also, the Activity was 88.93% in the experiment on SW-620; 71.22% in the experiment with HT-29; 104.44% in the experiment with HCC 2998; 123.8% in the experiment with COLO 205; 90% in the experiment with NCI-H460; 90.51% in the experiment with NCI-H226. Besides, the Activity amounted to 66.45% in the experiment with MOLT-4 and 74.11% in the experiment with CCRF-CEM.
Take `COc1cccc(C(=O)Nc2nc3ccc(Cl)cc3s2)c1`: the Activity amounted to 101.44% in the experiment with BT-549; 95.48% in the experiment on MDA-MB-231; 85.29% in the experiment with MCF7; 78.16% in the experiment with PC-3; 86.56% in the experiment on A498; 98.65% with OVCAR-8. The Activity with UACC-257 was 94.74%; with SK-MEL-2, 108.68%; in the experiment with U-251, 87.76%; in the experiment with SNB-75, 109.63%; in the experiment on SNB-19 it was 113.6%; in the experiment on SF-539, 101.47%. Moreover, the Activity in the experiment on SW-620 turned out to be 88.38%; in the experiment on HT-29, 80.12%; with HCC 2998, 93.56%; in the experiment on COLO 205, 105.5%; in the experiment with NCI-H460 it was 87.74%; in the experiment with NCI-H226, 93.47%. The Activity in the experiment on MOLT-4 is 83.68%; with CCRF-CEM it was 81.01%.
Consider `Oc1ccccc1-c1nc(-c2cccs2)no1`, for which the Activity in the experiment on BT-549 worked out at 92.36%; in the experiment on MDA-MB-231 it was 71.74%; in the experiment on MCF7, 56.48%; with PC-3 it was 85.02%; in the experiment with A498, 105.68%; in the experiment on OVCAR-8, 102.43%. Besides, the Activity in the experiment on UACC-257 stood at 96.64%; in the experiment with SK-MEL-2, 107.16%; with U-251, 89.74%; in the experiment on SNB-75 it was 90.2%; in the experiment with SNB-19 it was 102.55%; in the experiment on SF-539 it was 104.64%. The Activity is listed as 95.69% with SW-620; 111.27% in the experiment with HT-29; 83.27% in the experiment on HCC 2998; 111.09% in the experiment on COLO 205; 95.65% with NCI-H460; 93.28% with NCI-H226. Besides, the Activity is listed as 99.05% in the experiment with MOLT-4 and 91.77% in the experiment with CCRF-CEM.
For the compound `Clc1ccccc1Nc1nnc(-c2ccncc2)s1`, the Activity in the experiment on BT-549 was 90.37%; in the experiment with MDA-MB-231, 107.89%; in the experiment with MCF7 it was 96.02%; in the experiment with PC-3, 97.24%; in the experiment with A498 it was 92.09%; in the experiment on OVCAR-8, 100.07%. The Activity in the experiment with UACC-257 stood at 107.89%; in the experiment with SK-MEL-2, 106.68%; in the experiment with U-251 it was 102.87%; with SNB-75, 105.58%; with SNB-19 it was 99.81%; in the experiment with SF-539, 107.62%. In addition, the Activity in the experiment on SW-620 was 91.55%; in the experiment on HT-29, 105.3%; with HCC 2998, 106.44%; in the experiment on COLO 205 it was 114.33%; with NCI-H460, 99.69%; with NCI-H226 it was 100.58%. Also, the Activity with MOLT-4 is 93.42%; in the experiment on CCRF-CEM it was 95.96%.
In the case of `CC1(C)CCc2cc(-c3ccn(S(=O)(=O)c4ccccc4Cl)n3)ccc2O1`, the Activity was found to be 99.65% in the experiment with BT-549; 99.59% in the experiment on MDA-MB-231; 73.21% with MCF7; 70.67% in the experiment with PC-3; 71.86% in the experiment on A498; 89.74% in the experiment on OVCAR-8. Further, the Activity in the experiment with UACC-257 came to 99.38%; in the experiment on SK-MEL-2, 102.25%; with U-251, 67.67%; with SNB-75, 99.11%; in the experiment with SNB-19, 88.07%; in the experiment on SF-539, 87.92%. For the same compound, the Activity is 79.15% with SW-620; 33.37% with HT-29; 81.67% with HCC 2998; 88.88% with COLO 205; 79.3% with NCI-H460; 90.58% in the experiment with NCI-H226. The Activity came to 64.66% in the experiment on MOLT-4 and 59.83% in the experiment with CCRF-CEM.
With `COc1ccc2[nH]c(C(=O)NCc3ccccc3)cc2c1`, the Activity with BT-549 was determined as 104.33%; with MDA-MB-231, 91.31%; with MCF7, 83.2%; with PC-3, 102.32%; in the experiment on A498 it was 92.89%; in the experiment on OVCAR-8 it was 102.92%. For the same compound, the Activity in the experiment on UACC-257 is 103.04%; with SK-MEL-2, 108.1%; in the experiment on U-251 it was 98.45%; with SNB-75 it was 87.91%; in the experiment with SNB-19 it was 101.29%; in the experiment with SF-539, 101.58%. In addition, the Activity with SW-620 is given as 107.28%; in the experiment with HT-29, 102.88%; in the experiment with HCC 2998, 104.4%; with COLO 205, 123.53%; in the experiment with NCI-H460, 110.92%; with NCI-H226 it was 96.37%. For the same compound, the Activity in the experiment on MOLT-4 is 83.12%; in the experiment on CCRF-CEM it was 85.19%.
Take `COc1cc(/C=c2/sc3nc4ccccc4n3c2=O)cc(I)c1O`: the Activity worked out at 102.32% in the experiment on BT-549; 107.43% in the experiment on MDA-MB-231; 93.11% in the experiment on MCF7; 95.27% with PC-3; 69.55% in the experiment on A498; 97.39% in the experiment on OVCAR-8. For the same compound, the Activity came to 105.01% in the experiment with UACC-257; 104.64% in the experiment on SK-MEL-2; 101.21% with U-251; 114.58% with SNB-75; 108.08% with SNB-19; 112.47% in the experiment with SF-539. Further, the Activity is 93.08% in the experiment with SW-620; 104.58% in the experiment on HT-29; 106.16% in the experiment on HCC 2998; 103.31% in the experiment with COLO 205; 95.07% in the experiment with NCI-H460; 94.19% with NCI-H226. For the same compound, the Activity in the experiment on MOLT-4 amounted to 78.31%; in the experiment on CCRF-CEM it was 83.8%.
Consider `CC1(C)CC(=O)c2cc3c(N)c(C(=O)Nc4ccccc4Cl)sc3nc2C1`, for which the Activity with BT-549 was 128%; with MDA-MB-231, 116.03%; with MCF7, 111.34%; with PC-3 it was 105.8%; with A498, 71.33%; in the experiment with OVCAR-8, 109.63%. In addition, the Activity in the experiment on UACC-257 worked out at 104.02%; in the experiment on SK-MEL-2 it was 111.24%; with U-251 it was 102.37%; with SNB-75 it was 118.5%; in the experiment with SNB-19 it was 106.42%; in the experiment with SF-539 it was 111.8%. The Activity is 108.49% in the experiment with SW-620; 105.6% in the experiment with HT-29; 107.92% with HCC 2998; 125.06% in the experiment on COLO 205; 113.94% in the experiment on NCI-H460; 111.12% in the experiment with NCI-H226. Further, the Activity is given as 104.6% in the experiment with MOLT-4 and 97.05% with CCRF-CEM.
